Assay results from paper PMC4010493, “Molecular Characterization and Expression Analysis of ATP-Gated P2X7 Receptor Involved in Japanese Flounder (Paralichthys olivaceus) Innate Immune Response” (PLoS ONE, 2014).

What was measured:
Assay type in all cases: cell-based
poP2RX7 [1] = target: T1, poP2RX7 (Paralichthys olivaceus, UniProt A0A059T2C6); experiment: two-electrode voltage clamp, inhibition of ATP-evoked current; details: antagonist; 2 min pre-application, then co-applied with ATP; -70 mV, pH 7.5
T1 construct: Xenopus laevis oocytes; homotrimer
T1 sequence (A0A059T2C6 entry or part of it): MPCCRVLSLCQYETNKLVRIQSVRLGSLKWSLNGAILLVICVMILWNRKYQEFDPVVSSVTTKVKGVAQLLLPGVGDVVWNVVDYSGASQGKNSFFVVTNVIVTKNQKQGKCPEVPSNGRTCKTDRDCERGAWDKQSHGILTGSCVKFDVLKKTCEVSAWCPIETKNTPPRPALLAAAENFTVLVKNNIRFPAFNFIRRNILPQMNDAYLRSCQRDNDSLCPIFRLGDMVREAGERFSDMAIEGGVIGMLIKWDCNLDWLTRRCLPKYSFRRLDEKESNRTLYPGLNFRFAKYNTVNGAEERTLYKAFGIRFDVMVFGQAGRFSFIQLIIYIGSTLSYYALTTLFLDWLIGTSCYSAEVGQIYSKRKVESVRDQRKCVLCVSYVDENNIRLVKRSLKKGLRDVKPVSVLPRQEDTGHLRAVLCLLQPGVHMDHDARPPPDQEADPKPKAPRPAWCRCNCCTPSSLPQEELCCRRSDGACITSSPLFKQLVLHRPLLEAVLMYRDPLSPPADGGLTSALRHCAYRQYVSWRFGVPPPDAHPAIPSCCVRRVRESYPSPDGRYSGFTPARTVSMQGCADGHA

rP2RX7 [2] = target: T2, rP2RX7 (Rattus norvegicus, UniProt Q64663); experiment: as above; details: antagonist; 2 min pre-application, then co-applied with ATP; -70 mV, pH 7.5
T2 construct: gene P2rx7; rat P2RX7 cDNA in Xenopus laevis oocytes; homotrimer
T2 sequence (Q64663 1-595): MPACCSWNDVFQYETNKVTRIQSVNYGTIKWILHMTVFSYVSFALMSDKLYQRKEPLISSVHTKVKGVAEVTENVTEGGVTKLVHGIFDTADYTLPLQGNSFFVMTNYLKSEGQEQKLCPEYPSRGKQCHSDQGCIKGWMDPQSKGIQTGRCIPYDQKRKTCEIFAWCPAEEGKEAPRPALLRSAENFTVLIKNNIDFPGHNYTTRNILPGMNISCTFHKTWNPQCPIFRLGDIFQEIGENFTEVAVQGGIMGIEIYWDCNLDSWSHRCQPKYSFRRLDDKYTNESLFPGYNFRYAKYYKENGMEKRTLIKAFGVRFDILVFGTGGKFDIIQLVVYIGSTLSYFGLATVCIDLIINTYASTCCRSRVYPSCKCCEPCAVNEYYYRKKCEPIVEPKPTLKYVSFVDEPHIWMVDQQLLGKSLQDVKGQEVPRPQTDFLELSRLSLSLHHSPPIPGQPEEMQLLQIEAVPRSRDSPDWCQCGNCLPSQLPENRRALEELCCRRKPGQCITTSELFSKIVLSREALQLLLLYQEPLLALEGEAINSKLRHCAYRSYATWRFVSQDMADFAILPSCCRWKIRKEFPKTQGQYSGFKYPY

poP2RX7 [3] = target: T1, poP2RX7; experiment: two-electrode voltage clamp, Xenopus oocytes
rP2RX7 [4] = target: T2, rP2RX7; experiment: two-electrode voltage clamp, Xenopus oocytes
poP2RX7 [5] = target: T1, poP2RX7; experiment: two-electrode voltage clamp, inhibition of ATP-evoked current; details: antagonist; 2 min pre-application, then co-applied with ATP; -70 mV, pH 7.5; remark: listed apart in the source

SMILES	inhibition at 1 μM (poP2RX7 [1])	inhibition (rP2RX7 [2])	EC50 (poP2RX7 [3]) [µM]	EC50 (rP2RX7 [4]) [µM]	inhibition at 20 μM (poP2RX7 [5])
CCOc1ccc(Nc2ccc(C(=C3C=CC(=[N+](CC)Cc4cccc(S(=O)(=O)[O-])c4)C=C3C)c3ccc(N(CC)Cc4cccc(S(=O)(=O)O)c4)cc3C)cc2)cc1 [BBG]	ATP-evoked currents at poP2RX7 could be inhibited by both of the antagonists	inhibition induced by BBG or AZ10606120 (AZ) at poP2RX7 (open bars) and rP2RX7	–	–	–
Nc1ncnc2c1ncn2[C@@H]1O[C@H](COP(=O)(O)OP(=O)(O)OP(=O)(O)O)[C@@H](O)[C@H]1O [ATP]	–	–	790 ± 81	376 ± 120	–
O=C(CC12CC3CC(CC(C3)C1)C2)Nc1cccc2nc(NCCNCCO)ccc12 [AZ10606120]	–	AZ10606120 was less potent in poP2RX7 than in rP2RX7	–	–	AZ10606120 was less potent in poP2RX7 than in rP2RX7
Nc1ncnc2c1ncn2[C@@H]1O[C@H](COP(=O)(O)OP(=O)(O)OP(=O)(O)O)[C@@H](OC(=O)c2ccc(C(=O)c3ccccc3)cc2)[C@H]1O [BzATP]	–	–	743 ± 299	13.3 ± 1.6	–
